From patent US10385145B1, “Liquid photo initiating compound and uses of the same” (CHITEC TECHNOLOGY CO., LTD., priority 2018, dated 2019)
Read-outs that look alike come from different tables or passages of the source.

Legend:
[1] = Viscosity variation test, 0° C. atmosphere for 7 days; assay type: physicochemical; settings: for Viscosity, Mixture I, 7 days / Viscosity, Mixture I, Initial: 4 parts by weight photoinitiator in Mixture I; for Viscosity, Mixture I, 7 days / Viscosity, Mixture II, 7 days / Viscosity, Mixture III, 7 days: after 7 days in 0° C. atmosphere; for Viscosity, Mixture I, Initial / Viscosity, Mixture II, Initial / Viscosity, Mixture III, Initial: before exposure; for Viscosity, Mixture II, 7 days / Viscosity, Mixture II, Initial: 4 parts by weight photoinitiator in Mixture II; for Viscosity, Mixture III, 7 days / Viscosity, Mixture III, Initial: 4 parts by weight photoinitiator in Mixture III
[2] = Photo speed performance test; settings: 6 parts by weight photoinitiator + 2 parts Chivacure DETX in 100 parts black flexo formulation; wet film 25.15 μm; Fusion F300 D-bulb 300 W/inch
Excerpt: The black flexo formulation containing Oligomer 6325-100, EM2411 and carbon black (viscosity: 1750 cP) was mixed with a photoinitiator to carry out the photo speed performance test. […] The resultant mixture was coated on a printable pearlescent film (wet film thickness: 25.15 μm); and the coated printable pearlescent film was exposed to an UV light (Fusion F300, D-bulb, 300 W/inch) for curing.

[3] = Photoinitiator dosage test (curing performance); set-up: key to Curing performance, 1 time of UV light treatment / Curing performance, 2 times of UV light treatment / Curing performance, 3 times of UV light treatment / Curing performance, 4 times of UV light treatment: X: Not tack-free; Δ: Tack-free but not through-cure; ◯: Tack-free and through-cure; settings: for Curing performance, 1 time of UV light treatment / Curing performance, 2 times of UV light treatment / Curing performance, 3 times of UV light treatment / Curing performance, 4 times of UV light treatment: 365 nm, 4 W/inch
Description: The commercially available black flexo ink without a photoinitiator was mixed with a photoinitiator to carry out the photo speed performance test, and the effect of the amount of photo initiating compound Ia on the photo speed performance was evaluated. […] The resultant mixture was coated on a PET film with primer (means for improving adhesion) (dry film thickness: 5 μm). The coated PET film was exposed to an UV light (wavelength: 365 nm; 4 W/inch) for curing.

[4] = Acute oral toxicity test (LD50), OECD Test Guidelines 423; assay type: in vivo; settings: for LD50: acute oral, OECD 423; for Acute oral toxicity assessment: judged from LD50 exceeding 5000 mg/kg
[5] = background statement; cited from earlier work
[6] = in UV inks; background statement; cited from earlier work
[7] = Solubility test: dissolution in acrylate mixtures I to III; assay type: physicochemical; settings: one-hour ultrasonication at room temperature
Description: Mixtures I to III were prepared according to the composition provided below, and then 6 parts by weight of photoinitiator Trgacure® 369 (available from IGM), photoinitiator R-gen® 919 (available from Chitec Technology Co., Ltd.) or photo initiating compound Ia was added to each of the mixtures I to III.

[8] = background statement, relative to Irgacure 369 where stated; cited from earlier work
[9] = background statement; cited from earlier work; remark: listed apart in the source
[10] = 4 parts by weight photoinitiator
[11] = 8 parts by weight photoinitiator

## CCC(Cc1ccccc1)(C(=O)c1ccc(N2CCOCC2)cc1)N(C)C (stereo not drawn) [Irgacure® 369]
[1]
  Viscosity, Mixture I, 7 days: 60.4 cP
  Viscosity, Mixture I, Initial: 52.7 cP
  Viscosity, Mixture II, 7 days: Precipitate
  Viscosity, Mixture II, Initial: 385.0 cP
  Viscosity, Mixture III, 7 days: Precipitate
  Viscosity, Mixture III, Initial: 487.0 cP
[2]
  Photo speed: 120 m/minute
[3]; [10]
  Curing performance, 1 time of UV light treatment: X
  Curing performance, 2 times of UV light treatment: X
  Curing performance, 3 times of UV light treatment: X
  Curing performance, 4 times of UV light treatment: Δ
[3]; [11]
  Dissolution in black flexo ink: Incomplete dissolution
[4]
  LD50: >5000 mg/kg
  Acute oral toxicity assessment: no acute oral toxicity
[4]; in vivo, read-out: LD50
  LD50: > 5000 mg/kg
[5]
  Reproductive toxicity: reproductive toxicity
[6]
  Dosage above which prone to precipitate: over 4 wt %

## CCC(Cc1ccc(C)cc1)(C(=O)c1ccc(N2CCOCC2)cc1)N(C)C (stereo not drawn) [Irgacure® 379]
[5]
  Reproductive toxicity: reproductive toxicity

## CCC1(C)OCCN1c1ccc(C(=O)C(CC)(Cc2ccccc2)N(C)C)cc1 (stereo not drawn) [Photo initiating compound Ia]
[7]; 6 parts by weight photoinitiator in Mixture I
  Dissolution, Mixture I: Completely
[7]; 6 parts by weight photoinitiator in Mixture II
  Dissolution, Mixture II: Completely
[7]; 6 parts by weight photoinitiator in Mixture III
  Dissolution, Mixture III: Completely
[1]; 4 parts by weight in mixtures I to III
  Precipitate after exposure to 0° C. atmosphere for 7 days: no precipitate was observed
[1]
  Viscosity, Mixture I, 7 days: 51.2 cP
  Viscosity, Mixture I, Initial: 41.6 cP
  Viscosity, Mixture II, 7 days: 406.7 cP
  Viscosity, Mixture II, Initial: 351.3 cP
  Viscosity, Mixture III, 7 days: 547.8 cP
  Viscosity, Mixture III, Initial: 433.1 cP
[2]
  Photo speed: 120 m/minute
[3]; [10]
  Curing performance, 1 time of UV light treatment: X
  Curing performance, 2 times of UV light treatment: X
  Curing performance, 3 times of UV light treatment: X
  Curing performance, 4 times of UV light treatment: Δ
[3]; [11]
  Curing performance, 1 time of UV light treatment: Δ
[3]; amount increased up to 12 parts by weight
  Solubility in black flexo ink: no solubility issue was observed
[4]
  LD50: >5000 mg/kg
  Acute oral toxicity assessment: no acute oral toxicity
[4]; in vivo, read-out: LD50
  LD50: > 5000 mg/kg

## C=CCC(C)(C(=O)c1ccccc1)N1CCOCC1 (stereo not drawn) [compound 93]
[8]
  Photo speed: poor photospeeds

## C=CCC(C)(C(=O)c1ccccc1)N(C)C (stereo not drawn) [compound 95]
[8]
  Photo speed: poor photospeeds

## CN(C)C(C)(C(=O)c1ccccc1)c1ccccc1 (stereo not drawn) [compound 96]
[8]
  Photo speed: poor photospeeds

## C=CCC(C(=O)c1ccccc1)(c1ccccc1)N(C)C (stereo not drawn) [compound 100]
[8]
  Photo speed: poor photospeeds

## CCC(Cc1ccccc1)(C(=O)c1ccc(N(C)CCOC(C)=O)cc1)N(C)C (stereo not drawn) [compound IIa]
[9]
  Acute oral toxicity: high acute oral toxicity
[8]
  Photo speed: comparable to Irgacure® 369

## CCCCCCNc1ccc(C(=O)C(CC)(Cc2ccccc2)N(C)C)cc1 (stereo not drawn) [compound I]
[8]
  Photo speed: comparable to that of Irgacure® 369
